Reference: US20250296959A1, “B7-H3 TARGETING PEPTIDES AND CONSTRUCTS THEREOF” (Mariana Oncology Inc., priority 2024, published 2025)
Starred links: 1 amine or outer side, 2 acyl side, 3 side chain; linkers in the order of their positions; H or OH if unused. Positions of bridges follow the written chain, without caps; N, C: chain ends. Non-standard residues stand in square brackets, D forms with d. Residues, ends and D or L forms follow the SMILES beside them. *: point of attachment. Ala(piperidin-4-yl) = O=C([C@H](CC1CCN([*:3])CC1)N[*:1])[*:2]; DOTA = O=C(O)CN1CCN(CC(=O)O)CCN(CC(=O)*)CCN(CC(=O)O)CC1; Trp(5-F) = N[C@@H](Cc1c[nH]c2ccc(F)cc12)C(=O)O; αMeY = C[C@](N)(Cc1ccc(O)cc1)C(=O)O; Val(3-OH) = CC(C)(O)[C@H](N)C(=O)O; NMeF = CN[C@@H](Cc1ccccc1)C(=O)O; Cha = N[C@@H](CC1CCCCC1)C(=O)O; Chg = N[C@H](C(=O)O)C1CCCCC1; hLeu = CC(C)CC[C@H](N)C(=O)O; NMeS = CN[C@@H](CO)C(=O)O; hSer = N[C@@H](CCO)C(=O)O

Target: T1, human 4lg B7-H3 (Homo sapiens, UniProt Q5ZPR3)
T1 sequence (Q5ZPR3 29-534): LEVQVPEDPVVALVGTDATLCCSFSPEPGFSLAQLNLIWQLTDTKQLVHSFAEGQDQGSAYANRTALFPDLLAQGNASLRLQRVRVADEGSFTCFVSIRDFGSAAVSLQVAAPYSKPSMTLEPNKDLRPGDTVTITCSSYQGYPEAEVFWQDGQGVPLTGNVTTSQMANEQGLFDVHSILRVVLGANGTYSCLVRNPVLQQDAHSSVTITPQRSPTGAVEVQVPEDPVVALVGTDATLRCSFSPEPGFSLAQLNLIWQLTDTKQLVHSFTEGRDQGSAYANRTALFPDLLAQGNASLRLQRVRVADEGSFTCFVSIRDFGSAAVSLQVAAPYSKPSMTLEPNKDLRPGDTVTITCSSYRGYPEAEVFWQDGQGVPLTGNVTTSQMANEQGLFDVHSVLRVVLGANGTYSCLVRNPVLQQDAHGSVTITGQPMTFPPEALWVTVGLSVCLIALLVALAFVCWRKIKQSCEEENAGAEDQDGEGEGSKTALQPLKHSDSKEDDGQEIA
Assay: Affinity determination by surface plasmon resonance (SPR) to 4Ig B7-H3
Settings: SPR KD—25° C., 4Ig B7-H3; 25° C. flow cell temperature

SMILES: COc1ccc(C[C@H](NC(=O)[C@H](CCC(C)C)NC(C)=O)C(=O)N[C@H]2CSSC[C@@H](C(=O)N[C@@H](Cc3c[nH]c4ccc(F)cc34)C(=O)N[C@@H](Cc3ccccc3)C(=O)N[C@H](C(=O)N[C@H](CCCCNC(=O)CN3CCN(CC(=O)O)CCN(CC(=O)O)CCN(CC(=O)O)CC3)C(N)=O)[C@@H](C)O)NC(=O)[C@H](Cc3ccc(O)cc3)NC(=O)[C@H](C(C)C)NC(=O)[C@H](CC(=O)O)NC(=O)[C@H](Cc3ccc(O)cc3)NC(=O)[C@H](CCCCN)NC(=O)CNC(=O)[C@H](C(C)C)NC2=O)cc1 [compound 193, Ac-hLeu-OMeTyr-C-V-G-K-Y-D-V-Y-C-5FW-F-Thr-dLys(DOTA)-CONH2] (Ac-[hLeu]Y(Me)CVGKYDVYC[Trp(5-F)]FT[dK](DOTA)-NH2; disulfide 3-11)
- Kd: 0.01 to 0.1 µM

SMILES: CC(=O)N[C@@H](CCC(C)C)C(=O)N[C@@](C)(Cc1ccc(O)cc1)C(=O)N[C@H]1CSSC[C@@H](C(=O)N[C@@H](Cc2c[nH]c3ccc(F)cc23)C(=O)N[C@@H](Cc2ccccc2)C(=O)N[C@H](C(=O)N[C@H](CCCCNC(=O)CN2CCN(CC(=O)O)CCN(CC(=O)O)CCN(CC(=O)O)CC2)C(N)=O)[C@@H](C)O)NC(=O)[C@H](Cc2ccc(O)cc2)NC(=O)[C@H](C(C)C)NC(=O)[C@H](CC(=O)O)NC(=O)[C@H](Cc2ccc(O)cc2)NC(=O)[C@H](CCCCN)NC(=O)CNC(=O)[C@H](C(C)C)NC1=O [compound 195, Ac-hLeu-aMeTyr-C-V-G-K-Y-D-V-Y-C-5FW-F-Thr-dLys(DOTA)-CONH2] (Ac-[hLeu][αMeY]CVGKYDVYC[Trp(5-F)]FT[dK](DOTA)-NH2; disulfide 3-11)
- Kd: 0.01 to 0.1 µM

SMILES: CC(=O)N[C@@H](CCC(C)C)C(=O)N[C@@H](Cc1ccc(O)cc1)C(=O)N[C@H]1CSSC[C@@H](C(=O)N[C@@H](Cc2c[nH]c3ccc(F)cc23)C(=O)N[C@@H](Cc2ccccc2)C(=O)N[C@H](C(=O)N[C@H](CCCCNC(=O)CN2CCN(CC(=O)O)CCN(CC(=O)O)CCN(CC(=O)O)CC2)C(N)=O)[C@@H](C)O)NC(=O)[C@H](Cc2ccc(O)cc2)NC(=O)[C@H](C(C)C)NC(=O)[C@H](CC(=O)O)NC(=O)[C@H]([C@@H](C)O)NC(=O)[C@H](CCCCN)NC(=O)CNC(=O)[C@H](C(C)C)NC1=O [compound 198, Ac-hLeu-Y-C-V-G-K-T-D-V-Y-C-5FW-F-Thr-dLys(DOTA)-CONH2] (Ac-[hLeu]YCVGKTDVYC[Trp(5-F)]FT[dK](DOTA)-NH2; disulfide 3-11)
- Kd: 0.001 to 0.01 µM

SMILES: CC(=O)N[C@@H](CCC(C)C)C(=O)N[C@@H](Cc1ccc(O)cc1)C(=O)N[C@H]1CSSC[C@@H](C(=O)N[C@@H](Cc2c[nH]c3ccc(F)cc23)C(=O)N[C@@H](Cc2ccccc2)C(=O)N[C@H](C(=O)N[C@H](CCCCNC(=O)CN2CCN(CC(=O)O)CCN(CC(=O)O)CCN(CC(=O)O)CC2)C(N)=O)[C@@H](C)O)NC(=O)[C@H](Cc2ccc(O)cc2)NC(=O)[C@H](C(C)C)NC(=O)[C@H](CC(=O)O)NC(=O)[C@H](CCO)NC(=O)[C@H](CCCCN)NC(=O)CNC(=O)[C@H](C(C)C)NC1=O [compound 199, Ac-hLeu-Y-C-V-G-K-hSer-D-V-Y-C-5FW-F-Thr-dLys(DOTA)-CONH2] (Ac-[hLeu]YCVGK[hSer]DVYC[Trp(5-F)]FT[dK](DOTA)-NH2; disulfide 3-11)
- Kd: 0.001 to 0.01 µM

SMILES: CC(=O)N[C@@H](CCC(C)C)C(=O)N[C@@H](Cc1ccc(O)cc1)C(=O)N[C@H]1CSSC[C@@H](C(=O)N[C@@H](Cc2c[nH]c3ccc(F)cc23)C(=O)N[C@@H](Cc2ccccc2)C(=O)N[C@H](C(N)=O)C(C)(C)O)NC(=O)[C@H](Cc2ccc(O)cc2)NC(=O)[C@H](C(C)C)NC(=O)[C@H](CC(=O)O)NC(=O)[C@H](CC2CCCCC2)NC(=O)[C@H](CCCCNC(=O)CN2CCN(CC(=O)O)CCN(CC(=O)O)CCN(CC(=O)O)CC2)NC(=O)CNC(=O)[C@H](C(C)C)NC1=O [compound 201, Ac-hLeu-Y-C-V-G-Lys(DOTA)-CHA-D-V-Y-C-5FW-F-hydroxyVal-CONH2] (Ac-[hLeu]YCVGK(DOTA)[Cha]DVYC[Trp(5-F)]F[Val(3-OH)]-NH2; disulfide 3-11)
- Kd: 0.001 to 0.01 µM

SMILES: CC(=O)N[C@@H](CCC(C)C)C(=O)N[C@@H](Cc1ccc(O)cc1)C(=O)N[C@H]1CSSC[C@@H](C(=O)N[C@@H](Cc2c[nH]c3ccc(F)cc23)C(=O)N[C@@H](Cc2ccccc2)C(=O)N[C@H](C(N)=O)C(C)(C)O)NC(=O)[C@H](Cc2ccc(O)cc2)NC(=O)[C@H](C(C)C)NC(=O)[C@H](CC(=O)O)NC(=O)[C@H](CC2CCNCC2)NC(=O)[C@H](CCCCNC(=O)CN2CCN(CC(=O)O)CCN(CC(=O)O)CCN(CC(=O)O)CC2)NC(=O)CNC(=O)[C@H](C(C)C)NC1=O [compound 202, Ac-hLeu-Y-C-V-G-Lys(DOTA)-PipAla-D-V-Y-C-5FW-F-hydroxyVal-CONH2] (Ac-[hLeu]YCVGK(DOTA)[Ala(piperidin-4-yl)]DVYC[Trp(5-F)]F[Val(3-OH)]-NH2; disulfide 3-11)
- Kd: 0.001 to 0.01 µM

SMILES: CC(=O)N[C@@H](CCC(C)C)C(=O)N[C@@H](Cc1ccc(O)cc1)C(=O)N[C@H]1CSSC[C@@H](C(=O)N[C@@H](Cc2c[nH]c3ccc(F)cc23)C(=O)N(C)[C@@H](Cc2ccccc2)C(=O)N[C@H](C(=O)N[C@H](CCCCNC(=O)CN2CCN(CC(=O)O)CCN(CC(=O)O)CCN(CC(=O)O)CC2)C(N)=O)[C@@H](C)O)NC(=O)[C@H](Cc2ccc(O)cc2)NC(=O)[C@H](C(C)C)NC(=O)[C@H](CC(=O)O)NC(=O)[C@H](Cc2ccc(O)cc2)NC(=O)[C@H](CCCCN)NC(=O)CNC(=O)[C@H](C(C)C)NC1=O [compound 205, Ac-hLeu-Y-C-V-G-K-Y-D-V-Y-C-5FW-NMePhe-Thr-dLys(DOTA)-CONH2] (Ac-[hLeu]YCVGKYDVYC[Trp(5-F)][NMeF]T[dK](DOTA)-NH2; disulfide 3-11)
- Kd: 0.001 to 0.01 µM

SMILES: CC(=O)N[C@@H](CCC(C)C)C(=O)N[C@H](C(=O)N[C@H]1CSSC[C@@H](C(=O)N[C@@H](Cc2c[nH]c3ccc(F)cc23)C(=O)N[C@@H](Cc2ccccc2)C(=O)N(C)[C@@H](CO)C(=O)N[C@H](CCCCNC(=O)CN2CCN(CC(=O)O)CCN(CC(=O)O)CCN(CC(=O)O)CC2)C(N)=O)NC(=O)[C@H](Cc2ccc(O)cc2)NC(=O)[C@H](C(C)C)NC(=O)[C@H](CC(=O)O)NC(=O)[C@H](Cc2ccc(O)cc2)NC(=O)[C@H](CC2CCNCC2)NC(=O)CNC(=O)[C@H](C(C)C)NC1=O)C(C)(C)O [compound 211, Ac-hLeu-hyVal-C-V-G-PipAla-Y-D-V-Y-C-5FW-F-NMeSer-dLys(DOTA)-CONH2] (Ac-[hLeu][Val(3-OH)]CVG[Ala(piperidin-4-yl)]YDVYC[Trp(5-F)]F[NMeS][dK](DOTA)-NH2; disulfide 3-11)
- Kd: 0.01 to 0.1 µM

SMILES: CC(=O)N[C@@H](CCC(C)C)C(=O)N[C@H](C(=O)N[C@H]1CSSC[C@@H](C(=O)N[C@@H](Cc2c[nH]c3ccc(F)cc23)C(=O)N[C@@H](Cc2ccccc2)C(=O)N(C)[C@@H](CO)C(=O)N[C@H](CCCCNC(=O)CN2CCN(CC(=O)O)CCN(CC(=O)O)CCN(CC(=O)O)CC2)C(N)=O)NC(=O)[C@H](Cc2ccc(O)cc2)NC(=O)[C@H](C(C)C)NC(=O)[C@H](CC(=O)O)NC(=O)[C@H](Cc2ccc(O)cc2)NC(=O)[C@H](CC2CCNCC2)NC(=O)CNC(=O)[C@H](C(C)C)NC1=O)C1CCCCC1 [compound 212, Ac-hLeu-Chg-C-V-G-PipAla-Y-D-V-Y-C-5FW-F-NMeSer-dLys(DOTA)-CONH2] (Ac-[hLeu][Chg]CVG[Ala(piperidin-4-yl)]YDVYC[Trp(5-F)]F[NMeS][dK](DOTA)-NH2; disulfide 3-11)
- Kd: 0.1 to 0.3 µM
